Target: T1, S1P1 (Homo sapiens, UniProt P21453)
T1 construct: expressed in transfected cells; host or cells: CHO cells (membranes)
Assay: 35S-GTPγS binding, S1P1 membranes
Format: biochemical
Settings: membranes from CHO cells expressing S1P1; 60 min 30° C.
Protocol: Receptor binding assay: Membranes were prepared from CHO cells expressing S1P1 or S1P3 for use in ligand and […] binding studies. Cells were suspended in 50 mM TRIS, pH 7.4, 2 mM EDTA, 250 mM Sucrose (buffer A) and 1× Complete protease inhibitor cocktail (Roche), and disrupted at 4° C. by N2 decompression using a cell disruption bomb (Parr Instrument). Following centrifugation at 1000 RPM for 10 min at 4° C., the supernatant was suspended in buffer A and centrifuged again at 19000 RPM for 60 min at 4° C. The pellet was then suspended in 10 mM HEPES, pH 7.4, 1 mM EDTA, 250 mM Sucrose (Buffer B), and 1× Complete EDTA-free protease inhibitor cocktail and homogenized using a potter. Membranes were flash frozen in liquid N2 and stored at −80° C. [33P]sphingosine 1-phosphate (3000 Ci/mmol; American Radiolabeled Chemicals, Inc.) was added to test compounds in DMSO. Membranes and WGA SPA beads (GE Healthcare) were added to give a final volume of 100 μl in 96-well plates with assay concentrations of 25 pM or 10 pM [33P]sphingosine 1-phosphate (respectively for S1P1 or S1P3), 50 mM HEPES, pH 7.5, 5 mM MgCl2, 100 mM NaCl, 0.4% fatty acid-free BSA, 1-5 μg/well of proteins and 100 μg/well of WGA SPA beads. Binding was performed for 60 min at RT on a shaker and bound radioactivity was measured on a PerkinElmer 1450 MicroBeta counter. Specific binding was calculated by subtracting remaining radioactivity in the presence of 1000-fold excess of unlabeled S1P. Binding data were analyzed using the GraphPad Prism program.
Measurements of ^35S-GTPγS Binding: Membranes (1 to 10 μg protein) prepared as described above, were incubated in 96-well Scintiplates (PerkinElmer) with test compounds diluted in DMSO, in 180 μl of 20 mM HEPES, pH 7.4, 10 mM MgCl2, 2 μg/well Saponin, 0.2% fatty acid free BSA (Assay buffer), 140 mM NaCl and 1.7 μM GDP. The assay was initiated with the addition of 20 μl of 1.5 nM [35S]-GTPγS (1100 Ci/mmol; GE Healthcare) in assay buffer. After 60 min incubation at 30° C. on a shaker, plates were centrifuged for 10 min at 2000 RPM. Supernatant was discarded and membrane bound radioactivity was measured on a PerkinElmer 1450 MicroBeta counter. Triplicate samples were averaged and expressed as % response relative to S1P activation in absence of compound (n=2).

T1 sequence (P21453 whole entry, species assumed): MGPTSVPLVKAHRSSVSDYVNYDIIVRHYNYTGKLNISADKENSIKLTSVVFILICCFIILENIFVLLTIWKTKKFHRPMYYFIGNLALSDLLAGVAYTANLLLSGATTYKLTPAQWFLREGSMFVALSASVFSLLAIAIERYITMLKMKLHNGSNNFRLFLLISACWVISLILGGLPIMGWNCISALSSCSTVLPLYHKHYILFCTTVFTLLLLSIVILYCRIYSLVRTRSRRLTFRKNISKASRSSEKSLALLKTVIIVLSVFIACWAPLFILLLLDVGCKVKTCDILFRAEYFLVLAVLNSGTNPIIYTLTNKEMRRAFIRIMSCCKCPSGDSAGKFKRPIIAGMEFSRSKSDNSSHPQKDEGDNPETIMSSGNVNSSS

SMILES	EC50
COCc1cc(-c2nc(-c3ccc(C(=O)O)c(F)c3)no2)ccc1-c1ccccc1Cl [Example 98, 4-{5-[2′-chloro-2-(methoxymethyl)biphenyl-4-yl]-1,2,4-oxadiazol-3-yl}-2-fluorobenzoic acid]	0.067 µM
Cc1ccccc1-c1ccc(-c2nc(-c3ccc(C(=O)O)c(F)c3)no2)cc1O [Example 99, 2-fluoro-4-[5-(2-hydroxy-2′-methylbiphenyl-4-yl)-1,2,4-oxadiazol-3-yl]benzoic acid]	7.7 µM
COCCCc1cc(-c2nc(-c3ccc(C(=O)O)c(F)c3)no2)ccc1-c1ccccc1C [Example 100, 2-fluoro-4-{5-[2-(3-methoxypropyl)-2′-methylbiphenyl-4-yl]-1,2,4-oxadiazol-3-yl}benzoic acid]	0.538 µM
Cc1ccccc1-c1ccc(-c2nc(-c3ccc(C(=O)O)c(F)c3)no2)cc1OC(C)C [Example 101, 2-fluoro-4-[5-(2-isopropoxy-2′-methylbiphenyl-4-yl)-1,2,4-oxadiazol-3-yl]benzoic acid]	0.233 µM
COCCOc1cc(-c2nc(-c3ccc(C(=O)O)c(F)c3)no2)ccc1-c1ccccc1C [Example 103, 2-fluoro-4-{5-[2-(2-methoxyethoxy)-2′-methylbiphenyl-4-yl]-1,2,4-oxadiazol-3-yl}benzoic acid]	0.257 µM
Cc1ccccc1-c1ccc(-c2nc(-c3ccc(C(=O)O)c(F)c3)no2)cc1OCC(C)C [Example 104, 2-fluoro-4-[5-(2-isobutoxy-2′-methylbiphenyl-4-yl)-1,2,4-oxadiazol-3-yl]benzoic acid]	0.8 µM
Cc1ccccc1-c1ccc(-c2nc(-c3ccc(C(=O)O)c(F)c3)no2)cc1OCC1CC1 [Example 105, 4-{5-[2-(cyclopropylmethoxy)-2′-methylbiphenyl-4-yl]-1,2,4-oxadiazol-3-yl}-2-fluorobenzoic acid]	0.103 µM
COCc1cc(-c2nc(-c3cc(C(=O)OC)ccc3OC)no2)ccc1-c1ccccc1C [Example 106, methyl 4-methoxy-3-{5-[2-(methoxymethyl)-2′-methylbiphenyl-4-yl]-1,2,4-oxadiazol-3-yl}benzoate]	0.05 µM
COCc1cc(-c2nc(-c3cc(C(=O)O)ccc3OC)no2)ccc1-c1ccccc1C [Example 107, 4-methoxy-3-{5-[2-(methoxymethyl)-2′-methylbiphenyl-4-yl]-1,2,4-oxadiazol-3-yl}benzoic acid]	0.133 µM
COCc1cc(-c2nc(-c3ccc(Cl)c(C(=O)O)c3)no2)ccc1-c1ccccc1C [Example 108, 2-chloro-5-{5-[2-(methoxymethyl)-2′-methylbiphenyl-4-yl]-1,2,4-oxadiazol-3-yl}benzoic acid]	0.163 µM
COCc1cc(-c2nc(-c3cc(Cl)c(C(=O)O)cc3F)no2)ccc1-c1ccccc1C [Example 109, 2-chloro-5-fluoro-4-{5-[2-(methoxymethyl)-2′-methylbiphenyl-4-yl]-1,2,4-oxadiazol-3-yl}benzoic acid]	0.09 µM
COCc1cc(-c2nc(-c3ccc(C(=O)OC)c(F)c3)no2)ccc1OC(C)C [Example 110, methyl 2-fluoro-4-{5-[4-isopropoxy-3-(methoxymethyl)phenyl]-1,2,4-oxadiazol-3-yl}benzoate]	0.24 µM
COCc1cc(-c2nc(-c3ccc(C(=O)O)c(F)c3)no2)ccc1OC(C)C [Example 111, 2-fluoro-4-{5-[4-isopropoxy-3-(methoxymethyl)phenyl]-1,2,4-oxadiazol-3-yl}benzoic acid]	0.61 µM
COCc1cc(-c2nc(-c3cc(F)c(C(=O)O)cc3OC)no2)ccc1-c1ccccc1C [Example 112, 2-fluoro-5-methoxy-4-{5-[2-(methoxymethyl)-2′-methylbiphenyl-4-yl]-1,2,4-oxadiazol-3-yl}benzoic acid]	0.102 µM
COCc1cc(-c2nc(-c3ccc(C(=O)OC)c(F)c3)no2)ccc1N1CCCCC1C (centres unmarked) [Example 113, methyl 2-fluoro-4-{5-[3-(methoxymethyl)-4-(2-methylpiperidin-1-yl)phenyl]-1,2,4-oxadiazol-3-yl}benzoate]	0.485 µM
COCc1cc(-c2nc(-c3cc(Cl)c(C(=O)O)cc3OC)no2)ccc1-c1ccccc1C [Example 115, 2-chloro-5-methoxy-4-{5-[2-(methoxymethyl)-2′-methylbiphenyl-4-yl]-1,2,4-oxadiazol-3-yl}benzoic acid]	0.246 µM
COCc1cc(-c2nc(-c3ccc(C(=O)N(C)CC(=O)OC)c(F)c3)no2)ccc1-c1ccccc1C [Example 116, methyl N-(2-fluoro-4-{5-[2-(methoxymethyl)-2′-methylbiphenyl-4-yl]-1,2,4-oxadiazol-3-yl}benzoyl)-N-methylglycinate]	0.24 µM
COCc1cc(-c2nc(-c3ccc(C(=O)NCCC(=O)OC)c(F)c3)no2)ccc1-c1ccccc1C [Example 117, Methyl N-(2-fluoro-4-{5-[2-(methoxymethyl)-2′-methylbiphenyl-4-yl]-1,2,4-oxadiazol-3-yl}benzoyl)-beta-alaninate]	0.009 µM
COCc1cc(-c2nc(-c3ccc(C(=O)NC4(C(=O)O)CC4)c(F)c3)no2)ccc1-c1ccccc1C [Example 120, 1-[(2-fluoro-4-{5-[2-(methoxymethyl)-2′-methylbiphenyl-4-yl]-1,2,4-oxadiazol-3-yl}benzoyl)amino]cyclopropanecarboxylic acid]	0.058 µM
CCOC(=O)CC(C)NC(=O)c1ccc(-c2noc(-c3ccc(-c4ccccc4C)c(COC)c3)n2)cc1F (centres unmarked) [Example 121, Ethyl 3-[(2-fluoro-4-{5-[2-(methoxymethyl)-2′-methylbiphenyl-4-yl]-1,2,4-oxadiazol-3-yl}benzoyl)amino]butanoate]	0.281 µM
COCc1cc(-c2nc(-c3ccc(C(=O)N(C)CC(=O)O)c(F)c3)no2)ccc1-c1ccccc1C [Example 125, N-(2-fluoro-4-{5-[2-(methoxymethyl)-2′-methylbiphenyl-4-yl]-1,2,4-oxadiazol-3-yl}benzoyl)-N-methylglycine]	0.086 µM
COCc1cc(-c2nc(-c3ccc(C(=O)NCCCC(=O)OC)c(F)c3)no2)ccc1-c1ccccc1C [Example 126, Methyl 4-[(2-fluoro-4-{5-[2-(methoxymethyl)-2′-methylbiphenyl-4-yl]-1,2,4-oxadiazol-3-yl}benzoyl)amino]butanoate]	0.035 µM
COCc1cc(-c2nc(-c3ccc(C(=O)NC(C)(C)C(=O)OC)c(F)c3)no2)ccc1-c1ccccc1C [Example 128, Methyl N-(2-fluoro-4-{5-[2-(methoxymethyl)-2′-methylbiphenyl-4-yl]-1,2,4-oxadiazol-3-yl}benzoyl)-2-methylalaninate]	0.154 µM
COCc1cc(-c2nc(-c3ccc(C(=O)NC(C)(C)C(=O)O)c(F)c3)no2)ccc1-c1ccccc1C [Example 129, N-(2-fluoro-4-{5-[2-(methoxymethyl)-2′-methylbiphenyl-4-yl]-1,2,4-oxadiazol-3-yl}benzoyl)-2-methylalanine]	0.04 µM
COCc1cc(-c2nc(-c3cccc(C(=O)NCC(=O)OC)c3)no2)ccc1-c1ccccc1C [Example 130, Methyl N-(3-{5-[2-(methoxymethyl)-2′-methylbiphenyl-4-yl]-1,2,4-oxadiazol-3-yl}benzoyl)glycinate]	0.0086 µM
CCOC(=O)C1(NC(=O)c2cccc(-c3noc(-c4ccc(-c5ccccc5C)c(COC)c4)n3)c2)CC1 [Example 131, Ethyl 1-[(3-{5-[2-(methoxymethyl)-2′-methylbiphenyl-4-yl]-1,2,4-oxadiazol-3-yl}benzoyl)amino]cyclopropanecarboxylate]	0.035 µM
COCc1cc(-c2nc(-c3cccc(C(=O)NCCC(=O)OC)c3)no2)ccc1-c1ccccc1C [Example 132, Methyl N-(3-{5-[2-(methoxymethyl)-2′-methylbiphenyl-4-yl]-1,2,4-oxadiazol-3-yl}benzoyl)-beta-alaninate]	0.0029 µM
COCc1cc(-c2nc(-c3cccc(C(=O)NC4(C(=O)O)CC4)c3)no2)ccc1-c1ccccc1C [Example 133, 1-[(3-{5-[2-(methoxymethyl)-2′-methylbiphenyl-4-yl]-1,2,4-oxadiazol-3-yl}benzoyl)amino]cyclopropanecarboxylic acid]	0.0216 µM
COCc1cc(-c2nc(-c3cccc(C(=O)NCC(=O)O)c3)no2)ccc1-c1ccccc1C [Example 134, N-(3-{5-[2-(methoxymethyl)-2′-methylbiphenyl-4-yl]-1,2,4-oxadiazol-3-yl}benzoyl)glycine]	0.0051 µM

Reference: patent publication US8202865B2, “Oxadiazole derivatives” (Merck Serono SA, priority 2007, dated 2012)
